# Source: US20100093714A1, “AMIDES OF THIENO[2,3-d]PYRIMIDINE AND THEIR USE AS ADENOSINE A2a RECEPTOR ANTAGONISTS” (priority 2008, published 2010)
# pKi: −log10 of the molar value.
# Experiments:
# [1] = target: T1, human A2a adenosine receptor (Homo sapiens, UniProt P29274); assay: Ligand Binding Assay for Adenosine A2a Receptor (A2A-B); settings: HEK293 cell plasma membrane, radioligand [3H]CGS21680
# T1 construct: purchased PerkinElmer RB-HA2a; host or cells: HEK293 plasma membrane
# Protocol: Ligand binding assay of adenosine A2a receptor was performed using plasma membrane of HEK293 cells containing human A2a adenosine receptor (PerkinElmer, RB-HA2a) and radioligand [^3H]CGS21680 (PerkinElmer, NET1021). Assay was set up in 96-well polypropylene plate in total volume of 200 μL by sequentially adding 20 μL 1:20 diluted membrane, 130 μL assay buffer (50 mM Tris·HCl, pH7.4 10 mM MgCl2, 1 mM EDTA) containing [^3H] CGS21680, 50 μL diluted compound (4×) or vehicle control in assay buffer. Nonspecific binding was determined by […] NECA. Reaction was carried out at room temperature for 2 hours before filtering through 96-well GF/C filter plate pre-soaked in 50 mM Tris·HCl, pH7.4 containing 0.3% polyethylenimine. Plates were then washed 5 times with cold 50 mM Tris·HCl, pH7.4, dried and sealed at the bottom. Microscintillation fluid 30 μL was added to each well and the top sealed. Plates were counted on Packard Topcount for [^3H]. Data was analyzed in Microsoft Excel and GraphPad Prism programs. (Varani, K.; Gessi, S.; Dalpiaz, A.; Borea, P. A. British Journal of Pharmacology, 1996, 117, 1693)
# [2] = target: T2, human adenosine A1 receptor (Homo sapiens, UniProt P30542); assay: Adenosine A1 Receptor Functional Assay (A1GAL2); format: cell-based; settings: CHO-K1 cells, cAMP inducible beta-galactosidase reporter, 4nM r-PIA/1 uM Forskolin agonist challenge
# T2 construct: expressed in transfected cells; host or cells: CHO-K1
# T2 sequence (P30542 1-326): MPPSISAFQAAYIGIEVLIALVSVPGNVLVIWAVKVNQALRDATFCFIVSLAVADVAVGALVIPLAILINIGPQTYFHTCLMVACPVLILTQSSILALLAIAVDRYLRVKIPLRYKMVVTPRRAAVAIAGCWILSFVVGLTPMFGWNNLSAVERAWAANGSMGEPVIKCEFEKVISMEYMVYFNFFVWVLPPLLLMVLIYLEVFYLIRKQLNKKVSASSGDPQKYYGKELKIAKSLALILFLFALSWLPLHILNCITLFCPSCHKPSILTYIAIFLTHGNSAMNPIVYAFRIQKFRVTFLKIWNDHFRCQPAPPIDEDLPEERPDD
# Protocol: (§1) To initiate the functional assay, cryopreserved CHO-K1 cells overexpressing the human adenosine A1 receptor and containing a cAMP inducible beta-galactosidase reporter gene were thawed, centrifuged, DMSO containing media removed, and then seeded with fresh culture media into clear 384-well tissue culture treated plates (BD #353961) at a concentration of 10K cells/well. Prior to assay, these plates were cultured for two days at 37° C., 5% CO2, 90% Rh. On the day of the functional assay, culture media was removed and replaced with 45 uL assay medium (Hams/F-12 Modified (Mediatech #10-080CV) supplemented w/0.1% BSA). Test compounds were diluted and 11 point curves created at a 1000× concentration in 100% DMSO. Immediately after addition of assay media to the cell plates, 50 nL of the appropriate test compound antagonist or agonist control curves were added to cell plates using a Cartesian Hummingbird. Compound curves were allowed to incubate at room temperature on cell plates for approximately 15 minutes before addition of a 4nM r-PIA (Sigma P4532)/1 uM Forskolin (Sigma F3917) agonist challenge (5 uL volume). A control curve of r-PIA in 1 uM Forskolin, a DMSO/Media control, and a single dose of Forskolin were also included on each plate. After additions, cell plates were allowed to incubate at 37° C., 5% CO2, 90% Rh for 5.5-6 hours. After incubation, media was removed, and cell plates were washed 1×50 uL with DPBS w/o Ca & Mg (Mediatech 21-031-CV). Into dry wells, 20 uL of 1× Reporter Lysis Buffer (Promega E3971 (diluted in dH2O from 5× stock)) was added to each well and plates frozen at −20° C. overnight. For β-galactosidase enzyme calorimetric assay, plates were thawed out at room temperature and 20 μL 2× assay buffer (Promega) was added to each well. Color was allowed to develop at 37° C., 5% CO2, 90% Rh for 1-1.5 h or until reasonable signal appeared. The calorimetric reaction was stopped with the addition of 60 μL/well 1M sodium carbonate. Plates were counted at 405 nm on a SpectraMax Microplate Reader (Molecular Devices). Data was analyzed in Microsoft Excel and IC/EC50 curves were fit using a standardized macro.
# [3] = target: T3, human adenosine A2a receptor (Homo sapiens, UniProt P29274); assay: Adenosine A2a Receptor Functional Assay (A2AGAL2); format: cell-based; settings: CHO-K1 cells, cAMP inducible beta-galactosidase reporter, 15 nM NECA agonist challenge
# T3 construct: expressed in transfected cells; host or cells: CHO-K1
# T3 sequence (P29274 whole entry): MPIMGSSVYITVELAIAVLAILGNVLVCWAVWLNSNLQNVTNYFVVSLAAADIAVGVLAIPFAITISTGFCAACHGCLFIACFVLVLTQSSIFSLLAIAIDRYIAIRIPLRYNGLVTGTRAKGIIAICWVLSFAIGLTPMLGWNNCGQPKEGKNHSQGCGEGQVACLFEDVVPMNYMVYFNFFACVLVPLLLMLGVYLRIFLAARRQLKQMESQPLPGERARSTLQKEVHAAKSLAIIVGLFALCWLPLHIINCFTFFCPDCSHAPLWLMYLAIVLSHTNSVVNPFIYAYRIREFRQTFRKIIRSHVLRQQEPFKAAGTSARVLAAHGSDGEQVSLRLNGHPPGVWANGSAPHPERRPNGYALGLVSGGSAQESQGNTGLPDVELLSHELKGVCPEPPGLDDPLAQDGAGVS
# Protocol: as §1, with “A2a” for “A1”, “15 nM NECA” for “4nM r-PIA”, “E2387)” for “P4532)/1 uM Forskolin (Sigma F3917)”, “NECA,” for “r-PIA in 1 uM Forskolin,”, “Forskolin (Sigma F3917)” for “Forskolin”
# T1 sequence (P29274 whole entry): as above
SMILES,pKi [1],pKi [2],pKi [3]
"Cc1csc(-c2nc(N)c3cc(C(=O)N4CCOCC4)sc3n2)n1 [Example 3, [4-Amino-2-(4-methyl-thiazol-2-yl)-thieno[2,3-d]pyrimidin-6-yl]-morpholin-4-yl-methanone]",7.34,6.07,7.60
"Cc1ccc(-c2nc(N)c3cc(C(=O)N4CCOCC4)sc3n2)o1 [Example 5, [4-Amino-2-(5-methyl-furan-2-yl)-thieno[2,3-d]pyrimidin-6-yl]-morpholin-4-yl-methanone]",7.92,6.78,7.96
"Cc1csc(-c2nc(N)c3cc(C(=O)NCCN4CCS(=O)(=O)CC4)sc3n2)n1 [Example 7, 4-Amino-2-(4-methyl-thiazol-2-yl)-thieno[2,3-d]pyrimidine-6-carboxylic acid[2-(1,1-dioxo-1-thiomorpholin-4-yl)-ethyl]-amide]",–,~6.03,6.71
"Cc1csc(-c2nc(N)c3cc(C(=O)N4CCN(c5ccncc5)CC4)sc3n2)n1 [Example 8, [4-Amino-2-(4-methyl-thiazol-2-yl)-thieno[2,3-d]pyrimidin-6-yl]-(4-pyridin-4-yl-piperazin-1-yl)-methanone]",–,< 5.97,6.65
"Nc1nc(-c2ncco2)nc2sc(C(=O)NCCN3CCOCC3)cc12 [Example 25, 4-Amino-2-oxazol-2-yl-thieno[2,3-d]pyrimidine-6-carboxylic acid(2-morpholin-4-yl-ethyl)-amide]",–,< 5.88,6.54
"N#Cc1cccc(-c2nc(N)c3cc(C(=O)N4CCOCC4)sc3n2)c1 [Example 2, 3-[4-Amino-6-(morpholine-4-carbonyl)-thieno[2,3-d]pyrimidin-2-yl]-benzonitrile]",7.66,6.05,7.42
"Nc1nc(-c2nc(C(F)(F)F)cs2)nc2sc(C(=O)N3CCOCC3)cc12 [Example 26, [4-Amino-2-(4-trifluoromethyl-thiazol-2-yl)-thieno[2,3-d]pyrimidin-6-yl]-morpholin-4-yl-methanone]",–,< 5.88,7.03
"Cc1cc(-c2nc(N)c3cc(C(=O)N4CCOCC4)sc3n2)no1 [Example 17, [4-Amino-2-(5-methyl-isoxazol-3-yl)-thieno[2,3-d]pyrimidin-6-yl]-morpholin-4-yl-methanone]",–,< 6.03,6.28
